Laboratory results as given in patent US8916576B2 (Surface Logix, Inc., priority 2005, dated 2014).
pIC50: −log10 of the molar value. “And” between values parts separate entries of the source, which are not always exact repeats. Equal values may be shown once.

target: ROCK2 (Homo sapiens (Human), UniProt O75116); experiment: Inhibition of ROCK2 (Rho kinase inhibition assay; ROCK-II Assay Kit / IMAP); format: biochemical; settings: FIG. 10 legend; ROCK2 versus ROCK1 and PKC
Text: (§1) Methods of determining kinase inhibition are well known in the art. For example, kinase activity of an enzyme and the inhibitory capacity of a test compound can be determined by measuring enzyme specific phosphorylation of a substrate. Commercial assays and kits can be employed. For example, kinase inhibition can be determined using an IMAP® assay (Molecular Devices). This assay method involves the use of a fluorescently-tagged peptide substrate. Phosphorylation of the tagged peptide by a kinase of interest promotes binding of the peptide to a trivalent metal-based nanoparticle via the specific, high affinity interaction between the phospho-group and the trivalent metal. Proximity to the nanoparticle results in increased fluorescence polarization. Inhibition of the kinase by a kinase inhibitor prevents phosphorylation of the substrate and thereby limits binding of the fluorescently-tagged substrate to the nanoparticle. Such an assay can be compatible with a microwell assay format, allowing simultaneous determination of IC50 of multiple compounds.
ROCK-II inhibitory activity can be measured using the ROCK-II Assay Kit (Molecular Devices, inc.; Sunnyvale, Calif.).
(§2) Inhibition of ROCK2 by various compounds was determined.
(§3) Inhibitory activity for Rho kinase was determined for examples of compounds of the present invention. Inhibition of Rho kinase can be assayed as described. For each of these compounds their inhibitory activity for both ROCK 1 and ROCK 2 was determined. […] The IC50 values (in μM) for each of these compounds show a selectivity for inhibiting ROCK2.

ROCK2, sequence (O75116 whole entry, species assumed): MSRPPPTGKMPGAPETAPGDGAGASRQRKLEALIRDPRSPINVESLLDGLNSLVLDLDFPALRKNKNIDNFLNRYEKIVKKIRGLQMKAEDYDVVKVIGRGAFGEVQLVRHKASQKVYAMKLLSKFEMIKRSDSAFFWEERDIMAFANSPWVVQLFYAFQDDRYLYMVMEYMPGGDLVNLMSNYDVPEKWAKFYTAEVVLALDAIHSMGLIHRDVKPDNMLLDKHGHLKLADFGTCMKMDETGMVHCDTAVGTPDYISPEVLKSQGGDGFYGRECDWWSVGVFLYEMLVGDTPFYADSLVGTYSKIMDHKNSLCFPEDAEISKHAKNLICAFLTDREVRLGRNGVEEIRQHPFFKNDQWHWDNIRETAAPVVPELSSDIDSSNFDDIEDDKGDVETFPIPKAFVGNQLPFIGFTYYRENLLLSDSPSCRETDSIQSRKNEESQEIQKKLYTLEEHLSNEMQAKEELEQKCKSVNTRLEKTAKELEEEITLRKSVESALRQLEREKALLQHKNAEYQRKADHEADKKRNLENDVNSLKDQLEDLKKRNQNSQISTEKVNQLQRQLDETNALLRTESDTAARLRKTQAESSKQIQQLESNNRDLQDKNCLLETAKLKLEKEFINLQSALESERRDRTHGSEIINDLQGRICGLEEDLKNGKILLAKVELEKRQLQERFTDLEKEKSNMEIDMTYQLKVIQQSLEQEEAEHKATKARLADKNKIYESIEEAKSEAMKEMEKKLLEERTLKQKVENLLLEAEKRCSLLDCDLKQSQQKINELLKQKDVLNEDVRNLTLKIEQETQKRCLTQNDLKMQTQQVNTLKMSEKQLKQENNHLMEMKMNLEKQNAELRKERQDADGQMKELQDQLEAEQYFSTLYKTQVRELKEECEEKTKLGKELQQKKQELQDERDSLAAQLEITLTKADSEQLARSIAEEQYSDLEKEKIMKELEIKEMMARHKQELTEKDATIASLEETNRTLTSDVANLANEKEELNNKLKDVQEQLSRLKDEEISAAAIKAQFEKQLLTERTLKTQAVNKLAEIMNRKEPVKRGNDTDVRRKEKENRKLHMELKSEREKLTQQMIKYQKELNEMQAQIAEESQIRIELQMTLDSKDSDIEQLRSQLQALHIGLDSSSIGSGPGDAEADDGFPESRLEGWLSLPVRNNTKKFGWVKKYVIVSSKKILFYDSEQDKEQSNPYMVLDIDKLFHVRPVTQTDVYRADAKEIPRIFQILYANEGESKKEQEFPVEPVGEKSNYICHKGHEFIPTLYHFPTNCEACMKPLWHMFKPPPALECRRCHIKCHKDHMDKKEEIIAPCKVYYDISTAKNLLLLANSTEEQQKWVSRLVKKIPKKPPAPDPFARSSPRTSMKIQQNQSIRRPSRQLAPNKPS

Question: For CC(C)NC(=O)COc1cccc(-c2nc(Nc3ccc4[nH]ncc4c3)c3ccccc3n2)c1 [Example 82, 2-(3-(4-(1H-indazol-5-ylamino)quinazolin-2-yl)phenoxy)-N-isopropylacetamide], which “Specificity of kinase inhibition (FIG. 10)” value is on record?
Answer: specific inhibition of ROCK2

Question: Which “Specificity of kinase inhibition (FIG. 10)” value does the source give for C[C@@H](N)[C@H]1CC[C@H](C(=O)Nc2ccncc2)CC1 [Example Y27632, reference compound] here?
Answer: inhibits both ROCK1 and ROCK2, as well as PKC

same assay, conditions: Table 1; repeat determinations

Question: Which IC50 does the source give for CCCC(=O)Nc1cccc(-c2nc(Nc3ccc4[nH]ncc4c3)c3cc(OCCN4CCN(C)CC4)ccc3n2)c1 [Example 203, N-(3-(4-(1H-indazol-5-ylamino)-6-(2-(4-methylpiperazin-1-yl)ethoxy)-quinazolin-2-yl)phenyl)butyramide] here?
Answer: 0.012 µM and 0.0095 µM

Question: For CCCC(=O)Nc1cccc(-c2nc(Nc3ccc4[nH]ncc4c3)c3cc(OCCN4CCC(O)C4)ccc3n2)c1 (centres unmarked) [Example 205, N-(3-(4-(1H-indazol-5-ylamino)-6-(2-(3-hydroxypyrrolidin-1-yl)ethoxy)-quinazolin-2-yl)phenyl)butyramide], which IC50 is on record?
Answer: 0.011 µM and 0.012 µM and 0.008 µM and 0.013 µM

Question: With CCCC(=O)Nc1cccc(-c2nc(Nc3ccc4[nH]ncc4c3)c3cc(OCCN4CCCC4=O)c(OC)cc3n2)c1 [Example 206, N-(3-(4-(1H-indazol-5-ylamino)-7-methoxy-6-(2-(2-oxopyrrolidin-1-yl)ethoxy)quinazolin-2-yl)phenyl)butyramide] as the compound, how does the IC50 read?
Answer: 0.048 µM and 0.064 µM

Question: CCCC(=O)Nc1cccc(-c2nc(Nc3ccc4[nH]ncc4c3)c3cc(OCCN4CCN(C)CC4)c(OC)cc3n2)c1 [Example 209, N-(3-(4-(1H-indazol-5-ylamino)-7-methoxy-6-(2-(4-methylpiperazin-1-yl)ethoxy)quinazolin-2-yl)phenyl)butyramide] was tested. Which IC50 did it give?
Answer: 0.016 µM and 0.014 µM

Question: CCCC(=O)Nc1cccc(-c2nc(Nc3ccc4[nH]ncc4c3)c3cc(OCCN4CC[C@H](N(C)C)C4)c(OC)cc3n2)c1 [Example 210, N-(3-(4-(1H-indazol-5-ylamino)-6-(2-((S)-3-(dimethylamino)pyrrolidin-1-yl)ethoxy)-7-methoxyquinazolin-2-yl)phenyl)butyramide] was tested. Which IC50 did it give?
Answer: 0.018 µM and 0.01 µM

Question: CCCC(=O)Oc1cccc(-c2nc(Nc3ccc4[nH]ncc4c3)c3ccccc3n2)c1 [Example 211] was tested. Which IC50 did it give?
Answer: 0.129 µM

Question: CCCC(=O)Nc1ccccc1-c1nc(Nc2ccc3[nH]ncc3c2)c2ccccc2n1 [Example 212] was tested. Which IC50 did it give?
Answer: > 100 µM

Question: Which IC50 does the source give for COCCN(C)CC(=O)Nc1ccccc1-c1nc(Nc2ccc3[nH]ncc3c2)c2ccccc2n1 [Example 213] here?
Answer: > 100 µM

Question: For CC(C)(C)C(=O)Nc1ccccc1-c1nc(Nc2ccc3[nH]ncc3c2)c2ccccc2n1 [Example 214], which IC50 is on record?
Answer: > 100 µM

Question: With CNCC(=O)Nc1ccccc1-c1nc(Nc2ccc3[nH]ncc3c2)c2ccccc2n1 [Example 215] as the compound, how does the IC50 read?
Answer: 17 µM and > 10 µM

Question: With O=C(Nc1ccccc1-c1nc(Nc2ccc3[nH]ncc3c2)c2ccccc2n1)c1ccoc1 [Example 216] as the compound, how does the IC50 read?
Answer: > 100 µM

Question: Which IC50 does the source give for O=C(CN1CCCC1)Nc1ccccc1-c1nc(Nc2ccc3[nH]ncc3c2)c2ccccc2n1 [Example 217] here?
Answer: 36 µM

Question: Which IC50 does the source give for O=C(Nc1ccccc1-c1nc(Nc2ccc3[nH]ncc3c2)c2ccccc2n1)C1CCCNC1 (centres unmarked) [Example 218] here?
Answer: > 100 µM

Question: Which IC50 does the source give for COC(=O)Nc1ccccc1-c1nc(Nc2ccc3[nH]ncc3c2)c2ccccc2n1 [Example 219] here?
Answer: 2.9 µM

Question: How did the IC50 turn out when O=C(Nc1ccccc1-c1nc(Nc2ccc3[nH]ncc3c2)c2ccccc2n1)N1CCOCC1 [Example 220] was run?
Answer: > 100 µM

Question: How did the IC50 turn out when CN(C)C(=O)Nc1ccccc1-c1nc(Nc2ccc3[nH]ncc3c2)c2ccccc2n1 [Example 221] was run?
Answer: 49 µM

Question: Which IC50 does the source give for O=C(Nc1ccccc1-c1nc(Nc2ccc3[nH]ncc3c2)c2ccccc2n1)c1ccncc1 [Example 222] here?
Answer: > 100 µM

Question: For O=C(Nc1ccccc1-c1nc(Nc2ccc3[nH]ncc3c2)c2ccccc2n1)c1ccccn1 [Example 223], which IC50 is on record?
Answer: > 100 µM

Question: CN(C)CCC(=O)Nc1ccccc1-c1nc(Nc2ccc3[nH]ncc3c2)c2ccccc2n1 [Example 224] was tested. Which IC50 did it give?
Answer: 5.3 µM

Question: COCC(=O)Nc1ccccc1-c1nc(Nc2ccc3[nH]ncc3c2)c2ccccc2n1 [Example 225] was tested. Which IC50 did it give?
Answer: 1.7 µM

Question: For CC(C)NC(=O)CNc1cccc(-c2nc(Nc3ccc4[nH]ncc4c3)c3ccccc3n2)c1 [Example 230], which IC50 is on record?
Answer: > 3 µM

Question: Which IC50 does the source give for O=C(CN1CCOCC1)Nc1ccccc1-c1nc(Nc2ccc3[nH]ncc3c2)c2ccccc2n1 [Example 231] here?
Answer: > 3 µM

Question: Which IC50 does the source give for CC(C)NC(=O)COc1ccccc1-c1nc(Nc2ccc3[nH]ncc3c2)c2ccccc2n1 [Example 232] here?
Answer: > 100 µM

Question: For Oc1ccccc1-c1nc(Nc2ccc3[nH]ncc3c2)c2ccccc2n1 [Example 233], which IC50 is on record?
Answer: 2 µM and 2.5 µM

Question: With COCCNC(=O)COc1ccccc1-c1nc(Nc2ccc3[nH]ncc3c2)c2ccccc2n1 [Example 234] as the compound, how does the IC50 read?
Answer: > 100 µM

Question: With O=C(COc1ccccc1-c1nc(N(CC(=O)NCC2CC2)c2ccc3[nH]ncc3c2)c2ccccc2n1)NCC1CC1 [Example 235] as the compound, how does the IC50 read?
Answer: > 100 µM

Question: For O=C(COc1ccccc1-c1nc(N(CC(=O)NCc2ccccc2)c2ccc3[nH]ncc3c2)c2ccccc2n1)NCc1ccccc1 [Example 236], which IC50 is on record?
Answer: > 100 µM

Question: O=C(COc1ccccc1-c1nc(Nc2ccc3[nH]ncc3c2)c2ccccc2n1)NCc1ccccc1 [Example 237] was tested. Which IC50 did it give?
Answer: > 100 µM

Question: With COCCNC(=O)COc1ccccc1-c1nc(N(CC(=O)NCCOC)c2ccc3[nH]ncc3c2)c2ccccc2n1 [Example 238] as the compound, how does the IC50 read?
Answer: > 100 µM

Question: For COc1ccccc1-c1nc(Nc2ccc3[nH]ncc3c2)c2ccccc2n1 [Example 239], which IC50 is on record?
Answer: > 100 µM

Question: How did the IC50 turn out when CC(=O)Oc1ccccc1-c1nc(Nc2ccc3[nH]ncc3c2)c2ccccc2n1 [Example 240] was run?
Answer: 23 µM

Question: CCCC(=O)Nc1cccc(-c2nc(Nc3ccc4c(cnn4C)c3)c3cc(OCCN(C)C)ccc3n2)c1 [Example 243] was tested. Which IC50 did it give?
Answer: > 0.3 µM

Question: CCCC(=O)Nc1cccc(-c2nc(Nc3ccc4[nH]ncc4c3)c3cc(OCC4CC4)ccc3n2)c1 [Example 258] was tested. Which IC50 did it give?
Answer: 0.255 µM and 0.182 µM

Question: Which IC50 does the source give for CCCCC(=O)Nc1cccc(-c2nc(Nc3ccc4[nH]ncc4c3)c3ccccc3n2)c1 [Example 259] here?
Answer: 0.029 µM

Question: Which IC50 does the source give for CCCC(=O)Nc1cccc(-c2nc(Nc3ccc4c(cnn4C(=O)OC(C)(C)C)c3)c3cc(OCCOC)c(OC)cc3n2)c1 [Example 261] here?
Answer: > 0.3 µM

Question: For CCCC(=O)Nc1cccc(-c2nc(Nc3ccc4[nH]ncc4c3)c3cc(OC)c(OCCOC)cc3n2)c1 [Example 262], which IC50 is on record?
Answer: 0.024 µM

Question: With c1ccc(-c2nc(Nc3ccc4[nH]ncc4c3)c3cc(OCCN4CCOCC4)ccc3n2)cc1 [Example 265] as the compound, how does the IC50 read?
Answer: 6.5 µM and 7.3 µM

Question: Which IC50 does the source give for Oc1ccc2nc(-c3ccccc3)nc(Nc3ccc4[nH]ncc4c3)c2c1 [Example 267] here?
Answer: 3.9 µM

target: ROCK 1 (Homo sapiens (Human), UniProt Q13464); experiment: Inhibition of ROCK1 (Rho kinase inhibition assay); format: biochemical; settings: Tables 2.1-2.4
Text: as §1, §2, §3

ROCK 1, sequence (Q13464 whole entry, species assumed): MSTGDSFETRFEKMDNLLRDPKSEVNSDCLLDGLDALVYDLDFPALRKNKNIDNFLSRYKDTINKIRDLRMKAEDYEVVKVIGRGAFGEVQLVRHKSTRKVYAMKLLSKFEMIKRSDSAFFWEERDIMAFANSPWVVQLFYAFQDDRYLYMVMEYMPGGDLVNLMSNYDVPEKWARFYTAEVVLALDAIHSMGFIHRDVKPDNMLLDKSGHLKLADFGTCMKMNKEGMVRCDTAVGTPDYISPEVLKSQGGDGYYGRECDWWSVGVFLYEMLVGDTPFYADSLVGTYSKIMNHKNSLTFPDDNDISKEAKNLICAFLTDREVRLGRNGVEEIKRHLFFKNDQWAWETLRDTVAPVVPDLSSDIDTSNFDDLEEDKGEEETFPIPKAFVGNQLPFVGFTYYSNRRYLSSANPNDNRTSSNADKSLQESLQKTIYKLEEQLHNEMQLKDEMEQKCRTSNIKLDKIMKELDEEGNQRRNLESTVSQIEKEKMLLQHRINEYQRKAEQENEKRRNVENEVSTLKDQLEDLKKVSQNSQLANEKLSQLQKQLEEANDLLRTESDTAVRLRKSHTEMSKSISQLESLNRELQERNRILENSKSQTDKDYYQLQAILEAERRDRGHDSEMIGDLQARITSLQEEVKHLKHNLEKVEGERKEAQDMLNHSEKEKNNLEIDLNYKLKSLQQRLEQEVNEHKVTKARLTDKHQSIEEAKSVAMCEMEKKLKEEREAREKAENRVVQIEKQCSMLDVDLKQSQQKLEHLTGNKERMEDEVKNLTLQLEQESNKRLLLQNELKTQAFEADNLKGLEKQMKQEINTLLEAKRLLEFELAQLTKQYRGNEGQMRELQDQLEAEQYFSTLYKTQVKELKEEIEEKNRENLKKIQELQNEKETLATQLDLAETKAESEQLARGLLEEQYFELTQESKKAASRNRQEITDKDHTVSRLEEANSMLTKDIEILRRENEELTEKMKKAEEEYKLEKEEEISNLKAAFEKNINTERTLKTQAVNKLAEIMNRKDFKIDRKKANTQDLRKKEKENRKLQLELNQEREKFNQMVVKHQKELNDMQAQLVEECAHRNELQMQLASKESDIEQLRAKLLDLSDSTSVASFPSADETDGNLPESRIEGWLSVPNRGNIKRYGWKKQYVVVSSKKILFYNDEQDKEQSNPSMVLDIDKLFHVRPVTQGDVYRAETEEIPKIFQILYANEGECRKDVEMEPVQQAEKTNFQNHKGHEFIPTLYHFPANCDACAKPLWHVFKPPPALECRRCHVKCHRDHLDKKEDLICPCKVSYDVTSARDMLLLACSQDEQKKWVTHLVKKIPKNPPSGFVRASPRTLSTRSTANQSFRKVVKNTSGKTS

Question: With COCCNC(=O)COc1cccc(-c2nc(Nc3ccc4[nH]ncc4c3)c3ccccc3n2)c1 [Example 54, 2-(3-(4-(1H-indazol-5-ylamino)quinazolin-2-yl)phenoxy)-N-(2-methoxyethyl)acetamide] as the compound, how does the pIC50 read?
Answer: < 5.00

Question: How did the pIC50 turn out when O=C(COc1cccc(-c2nc(Nc3ccc4[nH]ncc4c3)c3ccccc3n2)c1)Nc1cccnc1 [Example 55, 2-(3-(4-(1H-indazol-5-ylamino)quinazolin-2-yl)phenoxy)-N-(pyridin-3-yl)acetamide] was run?
Answer: < 5.00

Question: CCCC(=O)Nc1cccc(-c2nc(Nc3ccc4[nH]ncc4c3)c3cc(OCCN(C)C)ccc3n2)c1 [Example 141, N-(3-(4-(1H-indazol-5-ylamino)-6-(2-(dimethylamino)ethoxy)quinazolin-2-yl)phenyl)butyramide] was tested. Which pIC50 did it give?
Answer: < 6.00

Question: With CCCC(=O)Nc1cccc(-c2nc(Nc3ccc4[nH]ncc4c3)c3cc(OCCCN4CCOCC4)c(OC)cc3n2)c1 [Example 160, N-(3-(4-(1H-indazol-5-ylamino)-7-methoxy-6-(3-morpholinopropoxy)quinazolin-2-yl)phenyl)butyramide] as the compound, how does the pIC50 read?
Answer: < 5.52

Question: COc1cc2nc(-c3cccc(NC(=O)CN4CCOCC4)c3)nc(Nc3ccc4[nH]ncc4c3)c2cc1OCCN1CCCC1 [Example 167, N-(3-(4-(1H-Indazol-5-ylamino)-7-methoxy-6-(2-(pyrrolidin-1-yl)ethoxy)quinazolin-2-yl)phenyl)-2-morpholinoacetamide] was tested. Which pIC50 did it give?
Answer: < 5.52

Question: With CCCC(=O)Nc1cccc(-c2nc(Nc3ccc4[nH]ncc4c3)c3ccc(OCCOC)cc3n2)c1 [Example 263] as the compound, how does the pIC50 read?
Answer: < 5.52

Question: With CC(=O)Oc1cccc(-c2nc(Nc3ccc4[nH]ncc4c3)c3ccccc3n2)c1 [Example 272] as the compound, how does the pIC50 read?
Answer: < 5.00
